Measurements taken from patent US9521850B2 (University of Florida Research Foundation, Incorporated, priority 2012, dated 2016).
Converted amounts (≈) assume the structure as drawn.

Legend:
Assay in all cases: microbe, parasite or virus in culture
Sinorhizobium meliloti = assay type: cell-based
Xanthomonas citri = assay type: cell-based, Xanthomonas citri subsp. citri
Bradyrhizobium japonicum = assay type: cell-based
Liberibacter crescens = assay type: cell-based
Rhizobium etli = assay type: cell-based
Mesorhizobium loti = assay type: cell-based
[1] = test system: Agrobacterium tumefaciens; assay type: cell-based

SMILES	MBC (Sinorhizobium meliloti) [µg/mL]	MIC (Sinorhizobium meliloti) [µg/mL]	MBC (Xanthomonas citri) [µg/mL]	MIC (Xanthomonas citri) [µg/mL]	MBC (Bradyrhizobium japonicum; 24 hrs) [µg/mL]	MIC (Bradyrhizobium japonicum; 24 hrs) [µg/mL]	MBC (Bradyrhizobium japonicum; 120 hrs) [µg/mL]	MIC (Bradyrhizobium japonicum; 120 hrs) [µg/mL]	MBC (Liberibacter crescens; 24 h) [µg/mL]	MIC (Liberibacter crescens; 24 h) [µg/mL]	MBC (Liberibacter crescens; 120 h) [µg/mL]	MIC (Liberibacter crescens; 120 h) [µg/mL]	MBC (Rhizobium etli; 24 hrs) [µg/mL]	MIC (Rhizobium etli; 24 hrs) [µg/mL]	MBC (Rhizobium etli; 120 hrs) [µg/mL]	MIC (Rhizobium etli; 120 hrs) [µg/mL]	MBC (Mesorhizobium loti) [µg/mL]	MIC (Mesorhizobium loti) [µg/mL]	MBC [1] [µg/mL]	MIC [1] [µg/mL]
CCOc1ccc(C2Nc3ccc(C(=O)c4ccccc4)cc3NC3=C2C(=O)CCC3)cc1 (stereo not shown) [SA7, 7-Benzoyl-11-(4-ethoxy-phenyl)-2,3,4,5,10,11-hexahydro-1H-dibenzo[b,e] [1,4]diazepin-1-one]	32 (≈ 73 µM)	16 (≈ 36.5 µM)	64 (≈ 146 µM)	32 (≈ 73 µM)	32 (≈ 73 µM)	32 (≈ 73 µM)	32 (≈ 73 µM)	32 (≈ 73 µM)	16 (≈ 36.5 µM)	16 (≈ 36.5 µM)	32 (≈ 73 µM)	32 (≈ 73 µM)	16 (≈ 36.5 µM)	16 (≈ 36.5 µM)	32 (≈ 73 µM)	32 (≈ 73 µM)	32 (≈ 73 µM)	16 (≈ 36.5 µM)	64 (≈ 146 µM)	16 (≈ 36.5 µM)
COc1ccc(N(C(=O)c2ccc(-n3cnnn3)cc2)C2(C(=O)Nc3ccccc3C)CCCCC2)cc1 [SSC11, N-(4-methoxy-phenyl)-N-{1-[(2-methyl-phenyl)carbamoyl]cyclohexyl}-4-(1H-tetrazol-1-yl)benzamide]	64 (≈ 125 µM)	32 (≈ 62.7 µM)	64 (≈ 125 µM)	32 (≈ 62.7 µM)	16 (≈ 31.3 µM)	16 (≈ 31.3 µM)	32 (≈ 62.7 µM)	32 (≈ 62.7 µM)	16 (≈ 31.3 µM)	16 (≈ 31.3 µM)	32 (≈ 62.7 µM)	32 (≈ 62.7 µM)	32 (≈ 62.7 µM)	16 (≈ 31.3 µM)	64 (≈ 125 µM)	32 (≈ 62.7 µM)	32 (≈ 62.7 µM)	16 (≈ 31.3 µM)	128 (≈ 251 µM)	32 (≈ 62.7 µM)
O=C1CC(c2ccccc2)CC2=C1C(c1ccc(O)cc1)Nc1ccc(C(=O)c3ccccc3)cc1N2 (stereo not shown) [SA6, 7-Benzoyl-11-(4-hydroxy-phenyl)-3-phenyl-2,3,4,5,10,11-hexahydro-1H-dibenzo[b,e] [1,4]diazepin-1-one]	32 (≈ 65.8 µM)	32 (≈ 65.8 µM)	128 (≈ 263 µM)	64 (≈ 132 µM)	32 (≈ 65.8 µM)	16 (≈ 32.9 µM)	32 (≈ 65.8 µM)	32 (≈ 65.8 µM)	16 (≈ 32.9 µM)	16 (≈ 32.9 µM)	64 (≈ 132 µM)	32 (≈ 65.8 µM)	32 (≈ 65.8 µM)	32 (≈ 65.8 µM)	64 (≈ 132 µM)	64 (≈ 132 µM)	32 (≈ 65.8 µM)	16 (≈ 32.9 µM)	64 (≈ 132 µM)	16 (≈ 32.9 µM)
Nc1c(C(=O)O)sc2nc(-c3ccccc3)cc(-c3ccc(F)cc3)c12 [SA2, 3-Amino-4-(4-fluorophenyl)-6-phenyl-thieno[2,3-b]pyridine-2-carboxylic acid]	32 (≈ 87.8 µM)	16 (≈ 43.9 µM)	64 (≈ 176 µM)	32 (≈ 87.8 µM)	64 (≈ 176 µM)	32 (≈ 87.8 µM)	128 (≈ 351 µM)	64 (≈ 176 µM)	16 (≈ 43.9 µM)	16 (≈ 43.9 µM)	32 (≈ 87.8 µM)	32 (≈ 87.8 µM)	32 (≈ 87.8 µM)	16 (≈ 43.9 µM)	64 (≈ 176 µM)	32 (≈ 87.8 µM)	32 (≈ 87.8 µM)	16 (≈ 43.9 µM)	64 (≈ 176 µM)	32 (≈ 87.8 µM)
CC(C)[C@H](NC(=O)c1ccccc1)C(=O)Nc1cccc(-n2cnnn2)c1 [SA3, N-[(2S)-3-Methyl-1-oxo-1-{[3-(1H-tetrazol-1-yl)phenyl]amino}-2-butanyl] benzamide]	64 (≈ 176 µM)	32 (≈ 87.8 µM)	128 (≈ 351 µM)	64 (≈ 176 µM)	32 (≈ 87.8 µM)	16 (≈ 43.9 µM)	64 (≈ 176 µM)	32 (≈ 87.8 µM)	16 (≈ 43.9 µM)	8 (≈ 22 µM)	32 (≈ 87.8 µM)	16 (≈ 43.9 µM)	32 (≈ 87.8 µM)	32 (≈ 87.8 µM)	64 (≈ 176 µM)	64 (≈ 176 µM)	32 (≈ 87.8 µM)	16 (≈ 43.9 µM)	64 (≈ 176 µM)	32 (≈ 87.8 µM)
